Patent US10988477B2 (Merck Patent GmbH, priority 2018, dated 2021)

Molecular target: GCN2 kinase (Homo sapiens, UniProt Q9P2K8)
Assay: GCN2 enzyme inhibition assay (Transcreener ADP2 fluorescence polarization)
Format: biochemical
Conditions: Enzyme activity for compounds of Formula IV; Ki(app), 280 μM ATP, 25° C.
Procedure, shortened: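 Human GCN2 (4 nM) preincubated 10 min with compound (0–8 μM) and 200 μM (RS)7 peptide in Tris-HCl pH 7.5, NaCl, MgCl2, DTT. Reaction started with 280 μM ATP, run 1 h at 25 °C. ADP detected by Transcreener fluorescence polarization. IC50 and Ki(app) fitted by tight-binding algorithm.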

GCN2 kinase, sequence (Q9P2K8 whole entry): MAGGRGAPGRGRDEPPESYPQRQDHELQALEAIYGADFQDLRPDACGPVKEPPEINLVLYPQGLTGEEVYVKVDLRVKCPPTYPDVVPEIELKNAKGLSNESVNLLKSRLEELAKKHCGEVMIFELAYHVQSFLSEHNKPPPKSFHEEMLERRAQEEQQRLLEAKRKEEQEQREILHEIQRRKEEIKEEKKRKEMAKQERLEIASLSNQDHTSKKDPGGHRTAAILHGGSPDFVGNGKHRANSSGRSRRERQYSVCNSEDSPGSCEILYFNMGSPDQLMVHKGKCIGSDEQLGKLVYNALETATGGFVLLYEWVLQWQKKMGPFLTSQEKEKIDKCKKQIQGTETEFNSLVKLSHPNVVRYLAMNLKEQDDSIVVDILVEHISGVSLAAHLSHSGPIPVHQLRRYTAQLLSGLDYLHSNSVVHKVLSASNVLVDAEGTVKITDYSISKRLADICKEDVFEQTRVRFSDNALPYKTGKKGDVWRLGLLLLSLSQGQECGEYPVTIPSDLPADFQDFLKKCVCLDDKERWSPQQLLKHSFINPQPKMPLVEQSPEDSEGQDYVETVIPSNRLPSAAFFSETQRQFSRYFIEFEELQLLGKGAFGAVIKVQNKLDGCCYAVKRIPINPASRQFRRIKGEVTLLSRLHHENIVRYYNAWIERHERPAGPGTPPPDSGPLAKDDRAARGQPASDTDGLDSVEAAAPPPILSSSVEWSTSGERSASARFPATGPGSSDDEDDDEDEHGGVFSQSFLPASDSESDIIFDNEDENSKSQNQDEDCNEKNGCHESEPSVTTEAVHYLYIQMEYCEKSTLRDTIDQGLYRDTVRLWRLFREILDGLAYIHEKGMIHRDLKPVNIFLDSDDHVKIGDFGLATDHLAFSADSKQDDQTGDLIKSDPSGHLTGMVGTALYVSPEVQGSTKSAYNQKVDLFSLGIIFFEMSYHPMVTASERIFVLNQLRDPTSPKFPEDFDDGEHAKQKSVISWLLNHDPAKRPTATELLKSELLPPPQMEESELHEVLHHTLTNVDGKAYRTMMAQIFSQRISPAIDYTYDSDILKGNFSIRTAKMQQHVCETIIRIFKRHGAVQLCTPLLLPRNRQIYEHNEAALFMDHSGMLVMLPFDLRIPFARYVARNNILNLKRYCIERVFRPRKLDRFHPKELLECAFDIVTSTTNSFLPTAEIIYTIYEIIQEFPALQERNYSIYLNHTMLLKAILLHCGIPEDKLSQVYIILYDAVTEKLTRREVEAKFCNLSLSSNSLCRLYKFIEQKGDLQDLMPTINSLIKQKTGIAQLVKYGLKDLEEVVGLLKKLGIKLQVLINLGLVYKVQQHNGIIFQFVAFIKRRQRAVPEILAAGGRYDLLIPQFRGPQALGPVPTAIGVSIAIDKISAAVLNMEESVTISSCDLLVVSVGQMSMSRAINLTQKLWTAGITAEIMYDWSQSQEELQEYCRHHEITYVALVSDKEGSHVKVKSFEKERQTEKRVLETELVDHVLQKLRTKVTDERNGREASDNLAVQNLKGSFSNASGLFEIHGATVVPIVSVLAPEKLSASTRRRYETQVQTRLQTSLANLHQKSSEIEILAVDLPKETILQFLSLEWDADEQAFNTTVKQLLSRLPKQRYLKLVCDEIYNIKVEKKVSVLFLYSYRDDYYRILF

Ki [nM]	SMILES
100 to 1000	FC(F)(F)c1cn2c(-c3nccc(N4CCCC(c5nncs5)C4)n3)cnc2cn1 (centres unmarked) [IV-671, 2-(1-(2-(6-(Trifluoromethyl)imidazo[1,2-a]pyrazin-3-yl)pyrimidin-4-yl)piperidin-3-yl)-1,3,4-thiadiazole]
100 to 1000	FC(F)(F)c1cn2c(-c3nccc(N4CCCC(c5ncccn5)C4)n3)cnc2cn1 (centres unmarked) [IV-719]
100 to 1000	CC1CN(c2nccc(-c3cnc4cnc(C(F)(F)F)cn34)n2)C(C)C(c2cn[nH]c2)N1 (single isomer, unassigned) [IV-370, 3-(2-(2,5-Dimethyl-3-(1H-pyrazol-4-yl)piperazin-1-yl)pyrimidin-4-yl)-6-(trifluoromethyl)imidazo[1,2-a]pyrazine]
100 to 1000	NC(=O)C1CN(c2ccnc(-c3cnc4cnc(C(F)(F)F)cn34)n2)CCN1 (centres unmarked) [IV-595, 4-(2-(6-(Trifluoromethyl)imidazo[1,2-a]pyrazin-3-yl)pyrimidin-4-yl)piperazine-2-carboxamide]
100 to 1000	CC(=O)N1CCCN(c2ccnc(-c3cnc4cnc(C(N)=O)cn34)n2)CC1 [IV-190, 3-(4-(4-Acetyl-1,4-diazepan-1-yl)pyrimidin-2-yl)imidazo[1,2-a]pyrazine-6-carboxamide]
100 to 1000	FC(F)(F)c1cn2c(-c3nccc(N4CCC(n5ccnc5)C4)n3)cnc2cn1 (centres unmarked) [IV-564, 3-(4-(3-(1H-Imidazol-1-yl)pyrrolidin-1-yl)pyrimidin-2-yl)-6-(trifluoromethyl)imidazo[1,2-a]pyrazine]
100 to 1000	O=C(Nc1ccncc1)[C@H]1CCCN(c2ccnc(-c3cnc4cnc(C(F)(F)F)cn34)n2)C1 [IV-720]
10 to 100	FC(F)(F)c1cn2c(-c3nccc(N4CCC(c5cn[nH]c5)C4)n3)cnc2cn1 (single isomer, unassigned) [IV-541, 3-(4-(3-(1H-Pyrazol-4-yl)pyrrolidin-1-yl)pyrimidin-2-yl)-6-(trifluoromethyl)imidazo[1,2-a]pyrazine]
100 to 1000	CC1CN(c2ccnc(-c3cnc4cnc(C#N)cn34)n2)C(C)C(c2cn[nH]c2)N1 (single isomer, unassigned) [IV-313, 3-(4-(2,5-Dimethyl-3-(1H-pyrazol-4-yl)piperazin-1-yl)pyrimidin-2-yl)imidazo[1,2-a]pyrazine-6-carbonitrile]
100 to 1000	CC(=O)NC1CCCN(c2ccnc(-c3cnc4cnc(C(N)=O)cn34)n2)C1 (centres unmarked) [IV-249, 3-(4-(3-Acetamidopiperidin-1-yl)pyrimidin-2-yl)imidazo[1,2-a]pyrazine-6-carboxamide]
100 to 1000	COCC1CCN(c2ccnc(-c3cnc4cnc(C(F)(F)F)cn34)n2)CC1 [IV-512, 3-(4-(4-(Methoxymethyl)piperidin-1-yl)pyrimidin-2-yl)-6-(trifluoromethyl)imidazo[1,2-a]pyrazine]
100 to 1000	CC(=O)N1CCN(c2cccc(-c3cnc4cnc(C(=O)N(C)C)cn34)n2)CC1 [IV-276, 3-(6-(4-Acetylpiperazin-1-yl)pyridin-2-yl)-N,N-dimethylimidazo[1,2-a]pyrazine-6-carboxamide]
10 to 100	CC1C(c2cn[nH]c2)OCCN1c1ccnc(-c2cnc3cnc(Br)cn23)n1 (single isomer, unassigned) [IV-329, 4-(2-(6-Bromoimidazo[1,2-a]pyrazin-3-yl)pyrimidin-4-yl)-3-methyl-2-(1H-pyrazol-4-yl)morpholine]
100 to 1000	NC(=O)c1cn2c(-c3nccc(N4CCCC(N)C4)n3)cnc2cn1 (centres unmarked) [IV-256, 3-(4-(3-Aminopiperidin-1-yl)pyrimidin-2-yl)imidazo[1,2-a]pyrazine-6-carboxamide]
100 to 1000	CC1CN(c2ccnc(-c3cnc4cnc(C(F)(F)F)cn34)n2)CC1N1CCOCC1 (centres unmarked) [IV-569, 4-(4-Methyl-1-(2-(6-(trifluoromethyl)imidazo[1,2-a]pyrazin-3-yl)pyrimidin-4-yl)pyrrolidin-3-yl)morpholine]
< 10	CC1NC(c2cn[nH]c2)C(C)N(c2ccnc(-c3cnc4cnc(C(F)(F)F)cn34)n2)C1C (single isomer, unassigned) [IV-337, 6-(Trifluoromethyl)-3-(4-(2,3,6-trimethyl-5-(1H-pyrazol-4-yl)piperazin-1-yl)pyrimidin-2-yl)imidazo[1,2-a]pyrazine]
10 to 100	FC(F)(F)c1cn2c(-c3nccc(N4CCCC(n5ccnc5)C4)n3)cnc2cn1 (centres unmarked) [IV-255, 3-(4-(3-(1H-Imidazol-1-yl)piperidin-1-yl)pyrimidin-2-yl)-6-(trifluoromethyl)imidazo[1,2-a]pyrazine]
< 10	C[C@H]1[C@@H](c2cn[nH]c2)OCCN1c1ccnc(-c2cnc3cnc(Cl)cn23)n1 (racemic) [IV-235, Cis-4-(2-(6-Chloroimidazo[1,2-a]pyrazin-3-yl)pyrimidin-4-yl)-3-methyl-2-(1H-pyrazol-4-yl)morpholine]
> 1000	FC(F)(F)c1cn2c(-c3nccc(N4CCc5sccc5C4)n3)cnc2cn1 [IV-749]
100 to 1000	O=C1NC[C@@H]2CCN(c3ccnc(-c4cnc5cnc(C(F)(F)F)cn45)n3)C[C@H]12 [IV-515, (3aR,7aR)-5-(2-(6-(Trifluoromethyl)imidazo[1,2-a]pyrazin-3-yl)pyrimidin-4-yl)octahydro-3H-pyrrolo[3,4-a]pyridin-3-one]
10 to 100	CS(C)(=O)=N[C@@H]1C[C@H](c2cn[nH]c2)CN(c2ccnc(-c3cnc4cnc(C(F)(F)F)cn34)n2)C1 (racemic) [IV-395]
100 to 1000	Cc1cn2c(-c3nccc(N4CCO[C@H](CNS(C)(=O)=O)C4)n3)cnc2cn1 [IV-47, (S)—N-((4-(2-(6-Methylimidazo[1,2-a]pyrazin-3-yl)pyrimidin-4-yl)morpholin-2-yl)methyl)methanesulfonamide]

Same assay, conditions: compounds of Formula II; 280 μM ATP, 4 nM GCN2 kinase

Ki [nM]	SMILES
< 10	CCS(C)(=O)=NC1CC(C)CN(c2cc(-c3cnc4ccc(C(F)F)nn34)ncn2)C1 (single isomer, unassigned) [II-643, ((1-(6-(6-(Difluoromethyl)imidazo[1,2-b]pyridazin-3-yl)pyrimidin-4-yl)-5-methylpiperidin-3-yl)imino)(ethyl)(methyl)-λ^6-sulfanone]
10 to 1000	Cc1noc([C@@H]2CN(c3cc(-c4cnc5ccc(C(F)(F)F)nn45)ccn3)C[C@H](C)O2)n1 [II-745]
10 to 1000	COCCOC1CC(CNS(C)(=O)=O)CN(c2cc(-c3cnc4ccc(C(F)F)nn34)ncn2)C1 (centres unmarked) [II-549, N-((1-(6-(6-(Difluoromethyl)imidazo[1,2-b]pyridazin-3-yl)pyrimidin-4-yl)-5-(2-methoxyethoxy)piperidin-3-yl)methyl)methanesulfonamide]
10 to 1000	OC[C@@H]1CCCN(c2cc(-c3cnc4ccc(C(F)(F)F)nn34)ncn2)C1 [II-517, (R)-(1-(6-(6-(Trifluoromethyl)imidazo[1,2-b]pyridazin-3-yl)pyrimidin-4-yl)piperidin-3-yl)methanol]
10 to 1000	CS(=N)(=O)NC[C@@H]1CN(c2cc(-c3cnc4ccc(C(F)F)nn34)ncn2)CCO1 (stereo partly drawn) [II-23, N—(((S)-4-(6-(6-(Difluoromethyl)imidazo[1,2-b]pyridazin-3-yl)pyrimidin-4-yl)morpholin-2-yl)methyl)methanesulfonimidamide]
< 10	CC(=O)N1CCN(c2cc(-c3cnc4ccc(C(F)F)nn34)ncn2)C(C)C1CNS(C)(=O)=O (centres unmarked) [II-515, N-((1-Acetyl-4-(6-(6-(difluoromethyl)imidazo[1,2-b]pyridazin-3-yl)pyrimidin-4-yl)-3-methylpiperazin-2-yl)methyl)methanesulfonamide]
10 to 1000	FC(F)c1ccc2ncc(-c3ccnc(N4CCCNCC4)c3)n2n1
10 to 1000	CC1CCN(c2cc(-c3cnc4ccc(C(F)F)nn34)ncn2)CC1N=S(C)(C)=O (single isomer, unassigned) [II-633, ((1-(6-(6-(Difluoromethyl)imidazo[1,2-b]pyridazin-3-yl)pyrimidin-4-yl)-4-methylpiperidin-3-yl)imino)dimethyl-λ^6-sulfanone]
10 to 1000	CS(=N)(=O)CC1CCCN(c2cc(-c3cnc4ccc(C(F)F)nn34)ncn2)C1 (single isomer, unassigned) [II-637, ((1-(6-(6-(Difluoromethyl)imidazo[1,2-b]pyridazin-3-yl)pyrimidin-4-yl)piperidin-3-yl)methyl)(imino)(methyl)-λ^6-sulfanone]
< 10	CC1CC(CS(C)(=O)=O)C(C)N(c2cc(-c3cnc4ccc(C(F)F)nn34)ncn2)C1 (single isomer, unassigned) [II-626, 6-(difluoromethyl)-3-[6-[2,5-dimethyl-3-(methylsulfonylmethyl)-1-piperidyl]pyrimidin-4-yl]imidazo[1,2-b]pyridazine]
10 to 1000	N#CCC1CN(c2cc(-c3cnc4ccc(C(F)F)nn34)ncn2)CCO1 (single isomer, unassigned) [II-564, 2-(4-(6-(6-(Difluoromethyl)imidazo[1,2-b]pyridazin-3-yl)pyrimidin-4-yl)morpholin-2-yl)acetonitrile]
10 to 1000	Cc1noc([C@@H]2CN(c3cc(-c4cnc5ccc(C(F)F)nn45)ccn3)C[C@H](C)O2)n1 [II-748]
10 to 1000	CC1C(CO)CCCN1c1cc(-c2cnc3ccc(C(F)F)nn23)ncn1 (centres unmarked) [II-555, (1-(6-(6-(Difluoromethyl)imidazo[1,2-b]pyridazin-3-yl)pyrimidin-4-yl)-2-methylpiperidin-3-yl)methanol]
10 to 1000	FC(F)c1ccc2ncc(-c3ccnc(N4C[C@@H]5C[C@H]4CN5)c3)n2n1 [II-165, 3-(2-((1S,4S)-2,5-Diazabicyclo[2.2.1]heptan-2-yl)pyridin-4-yl)-6-(difluoromethyl)imidazo[1,2-b]pyridazine]
10 to 1000	Cc1c(CNS(C)(=O)=O)cccc1-c1cc(-c2cnc3ccc(C(F)F)nn23)ncn1 [II-575, N-[[3-[6-[6-(Difluoromethyl)imidazo[1,2-b]pyridazin-3-yl]pyrimidin-4-yl]-2-methyl-phenyl]methyl]methanesulfonamide]
10 to 1000	CC(C)C(C)(O)C1CCCN(c2cc(-c3cnc4ccc(C(F)F)nn34)ncn2)C1 (centres unmarked) [II-622, 2-(1-(6-(6-(Difluoromethyl)imidazo[1,2-b]pyridazin-3-yl)pyrimidin-4-yl)piperidin-3-yl)-3-methylbutan-2-ol]
